Laboratory results taken from US20180228828A1, “FIXED-DOSE COMBINATIONS OF ANTIVIRAL COMPOUNDS” (priority 2015, published 2018).
Blank lines part the entries; values can stand above or below the compound they belong to.

What was measured:
[1] = human bioavailability comparison study, Tablet Formulation 9 vs co-administered single entity products; type: in vivo; conditions: for AUC(0-inf) / Cmax / AUC(0-t) / concentration at 24 h: human plasma, fasted; for concentration at 24 h: read-out: C24 GM
Description: (§1) The blend is lubricated with magnesium stearate prior to roller compaction. Following roller compaction, the granules are further lubricated with magnesium stearate before compression on a rotary press. Tablet properties of apparent density and solid fraction are determined by gravimetric measurement of the drug product and geometric estimation of size with corresponding component powder measure of true density using helium pycnometry. The core tablets are then film coated and waxed to complete manufacture.
(§2) The reference in the study was co-administration of single entity products to achieve the equivalent total dose. In this cross-over design study all subjects were in the fasted state. Tablet Formulations 9b, and 10b were administered as Treatment C in the respective studies. Tablet Formulations 9a, and 10a were administered as Treatment B in the respective studies. The co-administration of the reference products were identified as Treatment A. After administration, blood samples were taken periodically, and the plasma concentration of the analytes, both primary compounds and metabolites, determined to generate the pharmacokinetic profiles and related specific metrics. These metrics included Cmax, AUC, and C24 (where quantifiable). Summary results from the human PK trials for Tablet Formulation 9 and Tablet Formulation 10 products are provided in Table 10 to Table 13 and Table 14 to 17, respectively. The resulting metrics were then compared in relation to the reference single entity products to assess similarity.

[2] = human bioavailability comparison study, Tablet Formulation 10 vs co-administered single entity products; type: in vivo; conditions: for AUC(0-inf) / Cmax / AUC(0-t) / concentration at 24 h: human plasma, fasted; for concentration at 24 h: read-out: C24 GM
Description: as §1, §2

log D = type: physicochemical; conditions: pH=7
[3] = Treatment B (Tablet Formulation 9a) / Treatment A (single entities)
[4] = Treatment C (Tablet Formulation 9b) / Treatment A (single entities)
[5] = human, in vivo, Treatment A: co-administered single entity products, equivalent total dose
[6] = human, in vivo, Treatment A: co-administered single entity products, equivalent total dose, read-out: AUC0-24 GM
[7] = human, in vivo, Treatment A: co-administered single entity products, equivalent total dose, read-out: AUC0-last GM
[8] = human, in vivo, Treatment B: two units Tablet Formulation 9a
[9] = human, in vivo, Treatment C: two units Tablet Formulation 9b
[10] = Treatment B (Tablet Formulation 10a) / Treatment A (single entities)
[11] = Treatment C (Tablet Formulation 10b) / Treatment A (single entities)
[12] = human, in vivo, Treatment B: one unit Tablet Formulation 10a
[13] = human, in vivo, Treatment C: one unit Tablet Formulation 10b
[14] = human, plasma, oral, Treatment A: co-administered single entity products, equivalent total dose
[15] = human, plasma, oral, Treatment A: co-administered single entity products, equivalent total dose, read-out: AUC0-24 GM
[16] = human, plasma, oral, Treatment A: co-administered single entity products, equivalent total dose, read-out: AUC0-last GM
[17] = human, plasma, oral, Treatment B: two units Tablet Formulation 9a (450 mg Compound I, 100 mg Compound II, 50 mg Compound III), read-out: AUC0-last GM
[18] = human, plasma, oral, Treatment B: two units Tablet Formulation 9a
[19] = human, plasma, oral, Treatment B: two units Tablet Formulation 9a, read-out: AUC0-24 GM
[20] = human, plasma, oral, Treatment C: two units Tablet Formulation 9b (450 mg Compound I, 100 mg Compound II, 50 mg Compound III), read-out: AUC0-last GM
[21] = human, plasma, oral, Treatment C: two units Tablet Formulation 9b
[22] = human, plasma, oral, Treatment C: two units Tablet Formulation 9b, read-out: AUC0-24 GM
[23] = human, plasma, oral, Treatment B: one unit Tablet Formulation 10a (300 mg Compound I, 100 mg Compound II, 50 mg Compound III), read-out: AUC0-last GM
[24] = human, plasma, oral, Treatment B: one unit Tablet Formulation 10a
[25] = human, plasma, oral, Treatment B: one unit Tablet Formulation 10a, read-out: AUC0-24 GM
[26] = human, plasma, oral, Treatment C: one unit Tablet Formulation 10b (300 mg Compound I, 100 mg Compound II, 50 mg Compound III), read-out: AUC0-last GM
[27] = human, plasma, oral, Treatment C: one unit Tablet Formulation 10b
[28] = human, plasma, oral, Treatment C: one unit Tablet Formulation 10b, read-out: AUC0-24 GM

SMILES: CC(C)OC(=O)[C@@H](C)NP(=O)(OC[C@H]1O[C@@H](n2ccc(=O)[nH]c2=O)[C@](C)(Cl)[C@@H]1O)Oc1ccccc1 (stereo partly drawn) [Compound I, (2R)-isopropyl 2-(((((2R,3R,4R,5R)-4-chloro-5-(2,4-dioxo-3,4-dihydropyrimidin-1(2H)-yl)-3-hydroxy-4-methyltetrahydrofuran-2-yl)methoxy)(phenoxy)phosphoryl)amino)propanoate]
AUC0-24 B/A GM ratio [1, 3]: 1.23 | AUC0-last B/A GM ratio [1, 3]: 1.24 | AUC0-∞ B/A GM ratio [1, 3]: 1.23 | Cmax B/A GM ratio [1, 3]: 1.44 | AUC0-24 C/A GM ratio [1, 4]: 1.37 | AUC0-last C/A GM ratio [1, 4]: 1.38 | AUC0-∞ C/A GM ratio [1, 4]: 1.36 | Cmax C/A GM ratio [1, 4]: 1.69 | AUC(0-inf) [1, 5]: 2.6 µM·h | Cmax [1, 5]: 738 nM | AUC(0-t) [1, 6]: 2.56 µM·h | AUC(0-t) [1, 7]: 2.52 µM·h | AUC(0-t) ([1]; human, in vivo, Treatment B: two units Tablet Formulation 9a (450 mg Compound I, 100 mg Compound II, 50 mg Compound III), read-out: AUC0-last GM): 3.11 µM·h | AUC(0-inf) [1, 8]: 3.2 µM·h | Cmax [1, 8]: 1060 nM | AUC(0-t) ([1]; human, in vivo, Treatment B: two units Tablet Formulation 9a, read-out: AUC0-24 GM): 3.15 µM·h | AUC(0-t) ([1]; human, in vivo, Treatment C: two units Tablet Formulation 9b (450 mg Compound I, 100 mg Compound II, 50 mg Compound III), read-out: AUC0-last GM): 3.48 µM·h | AUC(0-inf) [1, 9]: 3.54 µM·h | Cmax [1, 9]: 1250 nM | AUC(0-t) ([1]; human, in vivo, Treatment C: two units Tablet Formulation 9b, read-out: AUC0-24 GM): 3.52 µM·h | AUC0-24 B/A GM ratio [2, 10]: 0.96 | AUC0-last B/A GM ratio [2, 10]: 0.95 | AUC0-∞ B/A GM ratio [2, 10]: 0.98 | Cmax B/A GM ratio [2, 10]: 0.98 | AUC0-24 C/A GM ratio [2, 11]: 1.01 | AUC0-last C/A GM ratio [2, 11]: 1.00 | AUC0-∞ C/A GM ratio [2, 11]: 1.01 | Cmax C/A GM ratio [2, 11]: 1.18 | AUC(0-inf) [2, 5]: 1.69 µM·h | Cmax [2, 5]: 525 nM | AUC(0-t) [2, 6]: 1.65 µM·h | AUC(0-t) [2, 7]: 1.63 µM·h | AUC(0-t) ([2]; human, in vivo, Treatment B: one unit Tablet Formulation 10a (300 mg Compound I, 100 mg Compound II, 50 mg Compound III), read-out: AUC0-last GM): 1.55 µM·h | AUC(0-inf) [2, 12]: 1.65 µM·h | Cmax [2, 12]: 517 nM | AUC(0-t) ([2]; human, in vivo, Treatment B: one unit Tablet Formulation 10a, read-out: AUC0-24 GM): 1.58 µM·h | AUC(0-t) ([2]; human, in vivo, Treatment C: one unit Tablet Formulation 10b (300 mg Compound I, 100 mg Compound II, 50 mg Compound III), read-out: AUC0-last GM): 1.63 µM·h | AUC(0-inf) [2, 13]: 1.7 µM·h | Cmax [2, 13]: 618 nM | AUC(0-t) ([2]; human, in vivo, Treatment C: one unit Tablet Formulation 10b, read-out: AUC0-24 GM): 1.67 µM·h

SMILES: COC(=O)N[C@H](C(=O)N1CCC[C@H]1c1nc(-c2ccc3c(c2)O[C@@H](c2ccccc2)n2c-3cc3cc(-c4c[nH]c([C@@H]5CCCN5C(=O)[C@@H](NC(=O)OC)C(C)C)n4)ccc32)c[nH]1)C(C)C [Compound II, dimethyl N,N′-([(6S)-6-phenylindolo[1,2-c][1,3]benzoxazine-3,10-diyl]bis{1H-imidazole-5,2-diyl-(2S)-pyrrolidine-2,1-diyl[(2S)-3-methyl-1-oxobutane-1,2-diyl]})dicarbamate]
Cmax ([1]; Treatment C: two units Tablet Formulation 9b): 115 nM | AUC(0-inf) [1, 14]: 2.04 µM·h | Cmax [1, 14]: 113 nM | AUC(0-t) [1, 15]: 1.21 µM·h | AUC(0-t) [1, 16]: 2.01 µM·h | concentration at 24 h [1, 14]: 32.3 nM | AUC(0-t) [1, 17]: 1.59 µM·h | AUC(0-inf) [1, 18]: 1.61 µM·h | AUC(0-t) [1, 19]: 0.938 µM·h | concentration at 24 h [1, 18]: 25.2 nM | AUC(0-t) [1, 20]: 2.35 µM·h | AUC(0-inf) [1, 21]: 2.38 µM·h | AUC(0-t) [1, 22]: 1.41 µM·h | concentration at 24 h [1, 21]: 37.4 nM | Cmax ([2]; Treatment C: one unit Tablet Formulation 10b): 102 nM | AUC(0-inf) [2, 14]: 1.84 µM·h | Cmax [2, 14]: 101 nM | AUC(0-t) [2, 15]: 1.12 µM·h | AUC(0-t) [2, 16]: 1.81 µM·h | concentration at 24 h [2, 14]: 28.5 nM | AUC(0-t) [2, 23]: 1.55 µM·h | AUC(0-inf) [2, 24]: 1.58 µM·h | Cmax [2, 24]: 81.8 nM | AUC(0-t) [2, 25]: 0.95 µM·h | concentration at 24 h [2, 24]: 25.1 nM | AUC(0-t) [2, 26]: 1.83 µM·h | AUC(0-inf) [2, 27]: 1.85 µM·h | AUC(0-t) [2, 28]: 1.14 µM·h | concentration at 24 h [2, 27]: 29.2 nM

AUC0-24 B/A GM ratio [1, 3]: 0.72 | AUC0-last B/A GM ratio [1, 3]: 0.77 | AUC0-∞ B/A GM ratio [1, 3]: 0.76 | C24 B/A GM ratio [1, 3]: 0.85 | Cmax B/A GM ratio [1, 3]: 0.64 | AUC0-24 C/A GM ratio [1, 4]: 1.00 | AUC0-last C/A GM ratio [1, 4]: 0.97 | AUC0-∞ C/A GM ratio [1, 4]: 0.88 | C24 C/A GM ratio [1, 4]: 1.04 | Cmax C/A GM ratio [1, 4]: 0.89 | AUC(0-inf) [1, 14]: 0.7 µM·h | Cmax [1, 14]: 38.5 nM | AUC(0-t) [1, 15]: 0.316 µM·h | AUC(0-t) [1, 16]: 0.538 µM·h | concentration at 24 h [1, 14]: 6.38 nM | AUC(0-t) [1, 17]: 0.415 µM·h | AUC(0-inf) [1, 18]: 0.53 µM·h | Cmax [1, 18]: 24.8 nM | AUC(0-t) [1, 19]: 0.229 µM·h | concentration at 24 h [1, 18]: 5.41 nM | AUC(0-t) [1, 20]: 0.522 µM·h | AUC(0-inf) [1, 21]: 0.617 µM·h | Cmax [1, 21]: 34.1 nM | AUC(0-t) [1, 22]: 0.317 µM·h | concentration at 24 h [1, 21]: 6.63 nM | logD (log D): -3 | AUC0-24 B/A GM ratio [2, 10]: 0.71 | AUC0-last B/A GM ratio [2, 10]: 0.72 | AUC0-∞ B/A GM ratio [2, 10]: 0.69 | C24 B/A GM ratio [2, 10]: 0.80 | Cmax B/A GM ratio [2, 10]: 0.70 | AUC0-24 C/A GM ratio [2, 11]: 0.86 | AUC0-last C/A GM ratio [2, 11]: 0.91 | AUC0-∞ C/A GM ratio [2, 11]: 0.95 | C24 C/A GM ratio [2, 11]: 0.85 | Cmax C/A GM ratio [2, 11]: 0.91 | AUC(0-inf) [2, 14]: 0.5 µM·h | Cmax [2, 14]: 27.5 nM | AUC(0-t) [2, 15]: 0.24 µM·h | AUC(0-t) [2, 16]: 0.36 µM·h | concentration at 24 h [2, 14]: 4.85 nM | AUC(0-t) [2, 23]: 0.26 µM·h | AUC(0-inf) [2, 24]: 0.34 µM·h | Cmax [2, 24]: 19.3 nM | AUC(0-t) [2, 25]: 0.17 µM·h | concentration at 24 h [2, 24]: 3.89 nM | AUC(0-t) [2, 26]: 0.33 µM·h | AUC(0-inf) [2, 27]: 0.47 µM·h | Cmax [2, 27]: 24.9 nM | AUC(0-t) [2, 28]: 0.2 µM·h | concentration at 24 h [2, 27]: 4.11 nM
SMILES: C=C[C@@H]1C[C@]1(NC(=O)[C@@H]1C[C@@H]2CN1C(=O)[C@H](C(C)(C)C)NC(=O)O[C@@H]1C[C@H]1CCCCCc1nc3ccc(OC)cc3nc1O2)C(=O)NS(=O)(=O)C1CC1 [Compound III, (1aR,5S,8S,10R,22aR)-N-[(1R,2S)-1-[(cyclopropylsulfonamido)carbonyl]-2-ethenylcyclopropyl]-14-methoxy-5-(2-methylpropan-2-yl)-3,6-dioxo-1,1a,3,4,5,6,9,10,18,19,20,21,22,22a-tetradecahydro-8H-7,10-methanocyclopropa[18,19][1,10,3,6]dioxadiazacyclononadecino[11,12-b]quinoxaline-8-carboxamide hydrate]
